{"source": "paper PMC4810081", "about": "“Venetoclax (ABT-199) Might Act as a Perpetrator in Pharmacokinetic Drug–Drug Interactions” (Pharmaceutics, 2016)", "key": {"[1]": {"experiment": "Growth inhibition assay in L-MDR1 cells", "assay_type": "cell-based, porcine", "conditions": "pig, L-MDR1 cells (LLC-PK1 over-expressing human ABCB1/P-gp)", "method": "LLC-PK1 and L-MDR1 cells. […] L-MDR1 cells were kindly provided by A. H. Schinkel (The Netherlands Cancer Institute, Division of Experimental Therapy, Amsterdam, The Netherlands). The cells were cultured under standard cell culture conditions with medium M199 supplemented with 10% FCS, 2 mM of glutamine, 100 U/mL of penicillin, and 100 µg/mL of streptomycin sulfate. To maintain P-gp/ABCB1 expression the culture medium for L-MDR1 was supplemented with 0.64 µM of vincristine. One day before seeding the cells for the growth inhibition assay, both cell lines were fed with a vincristine-free culture medium. Growth inhibition assays in LS180 cells were conducted to determine suitable maximum concentrations for the induction assay without profound antiproliferative effects. Proliferation was quantified by crystal violet staining of the surviving cells as described previously. […] Growth inhibition assays in MDCKII, and their MRP2 or BCRP over-expressing counterparts ([…], MDCKII-BCRP) and in LLC-PK1 and the corresponding P-gp over-expressing cell line L-MDR1 were conducted to evaluate whether venetoclax sustains its efficacy in MDR cell lines."}, "[2]": {"set-up": "method as in PMID 26639348, PMID 22184378, PMID 27520294", "conditions": "cited from earlier work"}, "OATP1B1": {"molecular_target": "T1, OATP1B1 (Homo sapiens, UniProt Q9Y6L6)", "T1 construct": "expressed in transfected cells; host or cells: HEK293 (HEK-OATP1B1; gift of D. Keppler)", "T1 sequence (Q9Y6L6 whole entry)": "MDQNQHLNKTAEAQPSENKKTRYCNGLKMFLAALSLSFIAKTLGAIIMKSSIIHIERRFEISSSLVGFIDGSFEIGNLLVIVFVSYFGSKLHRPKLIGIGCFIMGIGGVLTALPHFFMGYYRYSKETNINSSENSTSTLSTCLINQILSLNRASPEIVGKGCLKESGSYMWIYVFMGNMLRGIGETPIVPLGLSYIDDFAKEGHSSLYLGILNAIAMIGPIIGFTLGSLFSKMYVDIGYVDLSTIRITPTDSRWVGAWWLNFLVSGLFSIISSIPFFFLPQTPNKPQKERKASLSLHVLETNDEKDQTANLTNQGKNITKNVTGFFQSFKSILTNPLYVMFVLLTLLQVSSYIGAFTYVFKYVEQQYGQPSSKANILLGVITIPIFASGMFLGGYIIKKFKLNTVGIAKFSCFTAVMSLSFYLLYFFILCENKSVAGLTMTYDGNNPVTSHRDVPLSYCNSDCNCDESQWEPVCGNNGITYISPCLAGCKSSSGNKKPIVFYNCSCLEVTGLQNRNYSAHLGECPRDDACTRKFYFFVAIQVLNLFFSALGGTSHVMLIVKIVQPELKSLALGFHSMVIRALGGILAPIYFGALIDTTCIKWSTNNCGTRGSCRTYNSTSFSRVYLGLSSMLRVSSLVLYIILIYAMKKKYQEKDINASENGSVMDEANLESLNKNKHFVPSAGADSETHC", "experiment": "OATP1B1 inhibition, 8-FcA uptake in HEK-OATP1B1 cells", "assay_type": "in vitro ADME", "method": "HEK293 cells. For assessing inhibition of OATP1B1 and OATP1B3, the human embryonic kidney cell line HEK293 stably transfected with OATP1B1 (HEK-OATP1B1), OATP1B3 (HEK-OATP1B3), or the empty control vector (HEK293-VCG418) were used. Cells were cultured under standard cell culture conditions with DMEM supplemented with 10% FCS, 2 mM of glutamine, 100 U/mL of penicillin, 100 µg/mL of streptomycin sulfate, and 800 µg/mL of G418 to maintain over-expression. Cells were kindly provided by D. Keppler (German Cancer Research Centre, Heidelberg, Germany).\nInhibition of OATP1B1 and OATP1B3 was analyzed in HEK-OATP1B1 and HEK-OATP1B3 cells by quantifying the uptake of the fluorescent substrate 8-FcA by flow cytometry as described previously. HEK293-VCG418 cells were used as a control. Inhibition of OATPs leads to a reduced uptake of 8-FcA into the cells. Each experiment was performed at least in triplicate, and venetoclax was tested from 0.05 up to 100 µM."}, "AhR": {"system": "T2, AhR", "T2 construct": "endogenous in cells; host or cells: AZ-AHR (HepG2 with stably integrated AhR-responsive luciferase reporter; gift of Z. Dvorak)", "experiment": "AhR reporter gene assay in AZ-AHR cells", "assay_type": "cell-based, human", "conditions": "24 h, up to 10 µM", "method": "AZ-AHR cells. The human hepatoma cell line HepG2 stably transfected with a construct containing several AhR binding sites upstream of luciferase reporter gene was used to investigate whether venetoclax can activate AhR. Cells were kindly provided by Z. Dvorak (Palacky University, Olomouc, Czech Republic).\nTo test whether the induction of CYP1A1 or UGTs can be attributed to AhR activation by venetoclax, an AhR reporter gene assay was applied. 60,000 AZ-AhR cells were seeded into each well of 96-well plates with clear bottom and clear lid for luminometry. After incubation for 24 h, cells were treated in triplicate with venetoclax (0.1–10 µM) or vehicle control (0.2% DMSO) for a further 24 h. The assay was performed with the Steady-Glo™ Luciferase Assay System according to the manufacturer’s instructions. Drug-induced increases of AhR receptor activity were normalized to activity of non-drug treated controls, which was set to 1 (= 100%). The experiment was performed in triplicate."}, "CYP3A4": {"molecular_target": "T3, CYP3A4 (Homo sapiens, UniProt P08684)", "T3 construct": "purchased Becton Dickinson Biosciences (Heidelberg, Germany)", "T3 sequence (P08684 whole entry)": "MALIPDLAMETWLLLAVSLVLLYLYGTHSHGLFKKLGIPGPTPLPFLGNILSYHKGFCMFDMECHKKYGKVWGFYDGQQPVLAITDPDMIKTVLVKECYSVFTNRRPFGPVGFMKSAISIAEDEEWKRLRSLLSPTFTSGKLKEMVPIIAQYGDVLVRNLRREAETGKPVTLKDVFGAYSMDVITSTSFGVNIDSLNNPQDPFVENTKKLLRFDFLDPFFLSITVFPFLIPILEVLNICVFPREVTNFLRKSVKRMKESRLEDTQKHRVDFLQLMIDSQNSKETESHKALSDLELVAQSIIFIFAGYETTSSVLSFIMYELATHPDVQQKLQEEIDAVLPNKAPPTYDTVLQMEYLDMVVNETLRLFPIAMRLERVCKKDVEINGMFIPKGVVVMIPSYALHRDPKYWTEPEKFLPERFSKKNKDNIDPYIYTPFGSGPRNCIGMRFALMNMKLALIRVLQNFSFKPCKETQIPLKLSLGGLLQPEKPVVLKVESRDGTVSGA", "experiment": "CYP3A4 inhibition, CYP3A4/BFC High Throughput Inhibitor Screening Kit", "assay_type": "in vitro ADME", "conditions": "recombinant CYP, fluorogenic substrate", "method": "Inhibition studies for CYP2B6, CYP2D6, CYP2C19 and CYP3A4 were performed with the CYP2B6/EFC, CYP2D6/AMMC, the CYP2C19/CEC, and the CYP3A4/BFC High Throughput Inhibitor Screening Kit according to the manufacturer’s instructions. The kits contain the respective recombinant CYP and fluorogenic substrates, which are blocked dyes emitting a fluorescence signal when cleaved by the enzyme. For testing CYP1A2 inhibition, the P450-Glo CYP1A2 Screening System was used according to the manufacturer’s instructions. The kit contains the luminogenic CYP1A2 substrate luciferin-ME, which is converted by CYP1A2 into luciferin-generating light when incubated with the luciferin detection reagent of the kit. Eight concentrations of venetoclax in duplicates (0.009–20 µM) were tested in the fluorescence assays, and eight concentrations in triplicate (0.05–100 µM) were tested for the luminogenic assay. Each experiment was conducted in triplicate."}, "CYP1A1": {"system": "CYP1A1", "experiment": "Induction assay, CYP1A1 mRNA by real-time RT-PCR in LS180 cells", "assay_type": "in vitro ADME, human", "conditions": "four days, 10 µM", "method": "LS180 cells. The human colon adenocarcinoma cell line LS180 (available at ATCC, Manassas, VA, USA) is one of the standard models for investigating pregnane X receptor (PXR) and aryl hydrocarbon receptor (AhR) mediated induction and was thus used for induction experiments. Cells were cultured under standard cell culture conditions with DMEM supplemented with 10% FCS, 2 mM of glutamine, 100 U/mL of penicillin, 100 µg/mL of streptomycin sulfate, and 0.1 mM of nonessential amino acids.\nFor the induction experiments, LS180 cells were seeded in 75 cm^2 culturing flasks and incubated for three days. […]\nRNA was isolated using the GenElute™ Mammalian Total RNA Miniprep Kit, and cDNA was synthesized with the RevertAid™ H Minus First Strand cDNA Synthesis Kit according to the manufacturer's instructions. mRNA expression was quantified by real-time RT-PCR with the LightCycler® 480 (Roche Applied Science, Mannheim, Germany) as described previously. […] Data were evaluated via calibrator-normalized relative quantification with efficiency correction using the LightCycler® 480 software version 1.5 (Roche Applied Science, Mannheim, Germany). […] The following target genes were quantified: CYP1A1, CYP1A2, CYP3A4, ABCB1, ABCC2, ABCG2, SLCO1B1 (coding for OATP1B1), UDP-glucuronosyltransferase 1A3 (UGT1A3), and UGT1A9."}}}
{"smiles": "CC1(C)CCC(CN2CCN(c3ccc(C(=O)NS(=O)(=O)c4ccc(NCC5CCOCC5)c([N+](=O)[O-])c4)c(Oc4cnc5[nH]ccc5c4)c3)CC2)=C(c2ccc(Cl)cc2)C1", "note": "[Venetoclax]", "values": [{"measurement": "IC50", "setting": "[1]; with LY335979 (P-gp inhibitor), L-MDR1 + LY335979 (1 µM)", "value": "25.7 ± 4.1", "unit": "µM"}, {"measurement": "IC50", "setting": "[1]; L-MDR1, P-gp over-expressing", "value": "53.1 ± 4.1", "unit": "µM"}, {"measurement": "Therapeutic plasma concentrations", "setting": "[2]", "value": "about 5 µM"}, {"measurement": "IC50", "setting": "OATP1B1", "value": "47.8 ± 10.1", "unit": "µM"}, {"measurement": "luciferase activity in the AhR reporter gene assay", "setting": "AhR", "value": "did not increase"}, {"measurement": "IC50", "setting": "CYP3A4", "value": "7.2 ± 3.2", "unit": "µM"}, {"measurement": "mRNA expression of CYP1A1", "setting": "CYP1A1", "value": "induced"}]}
